What all share (experiment): growth of human tumour cells (NCI), 48 h
For assay [1], the system named is NCI-H23.
Assay [2] relates to SF-539.
The test system of assay [3] is K562.
Assay [4] concerns CCRF-CEM.
For assay [5], the system named is 786-0.
Assay [6] deals with HCT-15.
Assay [7] has as its system SN12C.
The test system of assay [8] is MOLT-4.
Assay [9] concerns TK-10.
The test system of assay [10] is RXF 393.
Assay [11] deals with UO-31.
The test system of assay [12] is NCI/ADR-RES.
Assay [13] has as its system LOX IMVI.
The subject of assay [14] is HT-29.
For assay [15], the system named is A498.
The test system of assay [16] is CAKI-1.
Assay [17] concerns M14.
Assay [18] concerns KM12.
In assay [19] the test system is HOP-92.
The test system of assay [20] is SR.

Results on 11 molecules are retold here after ChEMBL document CHEMBL1201862, “PubChem BioAssay data set” (2004).

Each structure is given as a SMILES string.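 Each compound was tested at five concentrations against cells in 96-well plates for 48 hours. GI50 is the concentration that inhibits growth by half.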 Active and inactive are the calls of the source. No stated cut-off is given here; in the data, active = GI50 up to about 1.1 µM and inactive = higher. A value given as a limit tells only on which side of the number the result lay.

Take `O=C(O)CCSc1ncnc2[nH]cnc12`: the GI50 in assay [1] was > 100 µM (inactive); in assay [2] it was > 100 µM (inactive); in assay [3], > 100 µM (inactive); in assay [4] it was > 100 µM (inactive); in [5], > 100 µM (inactive); in assay [6], greater than 100 µM. In addition, the GI50 in assay [7], in [8], in assay [9], in assay [10], in [11] and in assay [12] was > 100 µM (inactive) each time. For the same molecule, the GI50 in assay [13], in assay [14], in assay [15], in [16], in [17] and in [18] was > 100 µM (inactive) in each case. Besides, the GI50 in [19] is 27.1 µM (inactive).

In the case of `Cc1ccc(S(=O)(=O)OC2=C/C(=N\c3onc(C)c3C)c3ccccc3C2=O)cc1`, the GI50 in assay [1] was 22.6 µM (inactive); in assay [2], 31.8 µM (inactive); in assay [3] it was 4.41 µM (inactive); in assay [5], 37.1 µM (inactive); in [6] it was 29 µM; in [7], 18.7 µM (inactive). In addition, the GI50 is 4.8 µM (inactive) in assay [8]; 36.6 µM (inactive) in [9]; 17 µM (inactive) in assay [11]; 25.2 µM (inactive) in [12]; 18.6 µM (inactive) in [13]; 34.2 µM (inactive) in [14]. The GI50 in assay [15] was > 100 µM (inactive); in assay [16], 20 µM (inactive); in [17], 18.8 µM (inactive); in assay [20] it was 3.01 µM (inactive); in assay [18] it was 20.2 µM (inactive); in assay [19] it was 18.8 µM (inactive).

As for `CN1C2CCC1CN(CCOC(c1ccc(F)cc1)c1ccc(F)cc1)C2`, the GI50 was 69.7 µM (inactive) in assay [1]; 16.6 µM (inactive) in [2]; 20 µM (inactive) in assay [3]; 36.7 µM (inactive) in assay [4]; 19.6 µM (inactive) in assay [5]; 32.9 µM in assay [6]. In addition, the GI50 in [7] is 47.9 µM (inactive); in assay [8], 23.6 µM (inactive); in assay [9], > 100 µM (inactive); in [10], 16.5 µM (inactive); in assay [11], 33.2 µM (inactive); in assay [12] it was 35.4 µM (inactive). For the same molecule, the GI50 was 19.8 µM (inactive) in [13]; 19.5 µM (inactive) in assay [14]; 24.8 µM (inactive) in assay [15]; 45.8 µM (inactive) in assay [16]; 20.1 µM (inactive) in assay [17]; 21.8 µM (inactive) in [18]. Moreover, the GI50 in [19] was 21.4 µM (inactive).

On to `Cc1cccc(C(C)O)n1` (configuration not stated), for which the GI50 in assay [1] was > 100 µM (inactive); in [2], > 100 µM (inactive); in [3], > 100 µM (inactive); in assay [4], > 100 µM (inactive); in assay [5], > 100 µM (inactive); in [6], greater than 100 µM. In addition, the GI50 in [7], in assay [8], in [9], in assay [11], in assay [12] and in assay [14] was > 100 µM (inactive) throughout. For the same molecule, the GI50 in assay [15], in assay [16], in [17], in [20] and in [18] was > 100 µM (inactive) each time.

Consider `CC[C@@H]1CN2CCC1C[C@@H]2C(O)c1ccnc2ccc(OCCN3CCN(CCOc4ccc5nccc(C(O)[C@@H]6C[C@@H]7CCN6C[C@@H]7CC)c5c4)CC3)cc12` (some centres not stated), for which the GI50 in [1] is 20.7 µM (inactive); in assay [2] it was 13.8 µM (inactive); in assay [3], 2.63 µM (inactive); in [4], 4.45 µM (inactive); in assay [5] it was 13.4 µM (inactive); in assay [6], 24.2 µM. Besides, the GI50 was 14.3 µM (inactive) in assay [7]; 6.53 µM (inactive) in [8]; 14.4 µM (inactive) in [9]; 16.5 µM (inactive) in [10]; > 100 µM (inactive) in [12]; 14.8 µM (inactive) in [13]. Also, the GI50 in [14] is 15.7 µM (inactive); in assay [15] it was 20.2 µM (inactive); in assay [16], 17.9 µM (inactive); in assay [17] it was 12.8 µM (inactive); in assay [18] it was 16.1 µM (inactive); in [19], 8.81 µM (inactive).

As for `COc1ccc2c(n1)Sc1nc3ccccc3nc1N2`, the GI50 in [1] was 17.9 µM (inactive); in [2] it was 14.4 µM (inactive); in assay [3] it was 30.3 µM (inactive); in assay [4], 29.4 µM (inactive); in assay [5], 26.8 µM (inactive); in assay [6], 24.9 µM. Further, the GI50 in [7] is 21 µM (inactive); in [8] it was 13.8 µM (inactive); in assay [9], 15.6 µM (inactive); in assay [10], 32.2 µM (inactive); in assay [11] it was 20 µM (inactive); in assay [12] it was 24.7 µM (inactive). Besides, the GI50 in [13] was 31.4 µM (inactive); in assay [14] it was 85.7 µM (inactive); in assay [15], > 100 µM (inactive); in [16], 88.3 µM (inactive); in [17] it was > 100 µM (inactive); in assay [18] it was 55.7 µM (inactive). Besides, the GI50 in assay [19] was 78.5 µM (inactive).

For `COc1cc2c(cc1OC)[C@@H]1[C@H](C#N)C(=O)C(C)(C)N1CC2`, the GI50 in assay [1] is > 100 µM (inactive); in assay [3] it was > 100 µM (inactive); in assay [4], > 100 µM (inactive); in [5] it was > 100 µM (inactive); in assay [6] it was greater than 100 µM; in [7] it was > 100 µM (inactive). Besides, the GI50 in assay [8], in [9], in assay [11], in [12], in [13] and in assay [14] was > 100 µM (inactive) in each case. Moreover, the GI50 in assay [15], in assay [16], in assay [17], in [20], in [18] and in [19] was > 100 µM (inactive) throughout.

With `Cc1ccccc1/N=N/c1ccc(/N=N/c2c(O)ccc3ccccc23)c(C)c1` [SCARLET RED], the GI50 in [1] was > 100 µM (inactive); in [3] it was > 100 µM (inactive); in assay [4] it was > 10 µM (inactive); in assay [5], > 100 µM (inactive); in assay [6], greater than 100 µM; in assay [7], > 100 µM (inactive). The GI50 in assay [8], in [9], in assay [10], in [11], in assay [12] and in assay [13] was > 100 µM (inactive) throughout. For the same molecule, the GI50 in [14], in assay [15], in [16], in [17], in assay [18] and in assay [19] was > 100 µM (inactive) throughout.

Turning to `CCCCn1c(C)c(C(=O)OCC)c2cc(OCc3ccc(C(=O)Nn4c(C)ccc4C)cc3)c(Br)cc21`, the GI50 is > 100 µM (inactive) in assay [1]; > 100 µM (inactive) in assay [2]; > 100 µM (inactive) in assay [3]; > 100 µM (inactive) in [4]; > 100 µM (inactive) in assay [5]; greater than 100 µM in assay [6]. For the same molecule, the GI50 in assay [7], in assay [8], in [9], in [12], in assay [13] and in assay [14] was > 100 µM (inactive) each time. Further, the GI50 in assay [15], in [16], in assay [17], in assay [20], in assay [18] and in assay [19] was > 100 µM (inactive) in each case.

With `O=C(O)CCCCn1ccc(=O)[nH]c1=O`, the GI50 in [1] is > 100 µM (inactive); in assay [2], > 100 µM (inactive); in assay [3], > 100 µM (inactive); in assay [4], > 100 µM (inactive); in assay [5], > 100 µM (inactive); in assay [6], greater than 100 µM. Besides, the GI50 in assay [7], in assay [8], in assay [9], in assay [10], in assay [11] and in assay [12] was > 100 µM (inactive) in each case. For the same molecule, the GI50 in [13], in [14], in assay [15], in [16], in [17] and in assay [20] was > 100 µM (inactive) in each case. Moreover, the GI50 in assay [18] was > 100 µM (inactive).

Consider `CC1(C)CC(=O)C(CCC(=O)/C=C/c2ccccc2)C(=O)C1`, for which the GI50 in assay [1] is > 100 µM (inactive); in assay [2], > 100 µM (inactive); in assay [3] it was > 100 µM (inactive); in [4], > 34.9 µM (inactive); in assay [5] it was > 100 µM (inactive); in assay [6], greater than 100 µM. In addition, the GI50 was > 100 µM (inactive) in assay [7]; 34 µM (inactive) in assay [8]; > 100 µM (inactive) in assay [9]; > 95.3 µM (inactive) in assay [10]; > 61.4 µM (inactive) in [11]; > 100 µM (inactive) in [12]. Besides, the GI50 in [13], in [14], in assay [15], in assay [16], in assay [17] and in [18] was > 100 µM (inactive) throughout. The GI50 in assay [19] is > 89.3 µM (inactive).
